{"source": "patent US10420824B2", "about": "“Induced activation in dendritic cells” (BAYLOR COLLEGE OF MEDICINE, priority 2003, dated 2019)", "key": {"[1]": {"tested_on": "CD40", "assay": "Flow cytometry of CD40 on D2SC/1 DC line after CD40L and inhibitors", "format": "cell-based", "experimental": "FIG. 8A-FIG. 8C show CD40L downregulates and reduces the signaling capacity of CD40. FIG. 8A provides two graphs showing endocytosis inhibition reduces CD40 downregulation. D2SC/1 cell lines were incubated with 250 μM cytochalasin B for 1 hour followed by a 30 min CD40L treatment. D2SC/1 cells were also treated with cytochalasin B, the DMSO solvent control, and CD40L alone. K^+-depletion of the D2SC/1 cell line was also carried out prior to CD40 surface staining and flow cytometry analysis. Only viable cells were gated for analysis. FIG. 8B provides flow cytometry analysis showing inhibition of lysosomal degradation enhances intracellular CD40 levels. D2SC/1 cell lines were incubated with 0.5 μM bafilomycin A inhibitor for 1 hour followed by intracellular staining for CD40 (Total CD40). Total CD40 is compared to surface CD40 fluorescence. FIG. 8C is a graph showing inhibition of endocytosis intensifies the CD40 activation signal in DC Lines. Staining and analysis of surface H-2K^d.\nTo initially investigate the potential downregulation of surface CD40 upon ligand engagement, flow cytometric analysis of DC surface expression of CD40 was monitored in the presence and absence of CD40L."}, "[2]": {"tested_on": "RelB", "assay": "Nuclear translocation of RelB by western blot of nuclear lysates of iCD40 D2SC/1 DCs, with pulse-chase", "format": "cell-based", "conditions": "pulse-chase experiments", "from_the_text": "FIG. 2A-FIG. 2F show inducible CD40 initiates a potent NFkB signal in DCs. FIG. 2A is a photograph of an anti-HA Western Blot Analysis of iCD40 D2SC/1 DC Clones. FIG. 2B is a photograph of anti-HA Immunofluorescence of D2SC/1.Hi (lt) and D2SC/1 (rt) FIG. 2C is a graph of results of an NFκB-SEAP Reporter Assay. FIG. 2D is a graph of results and a photograph that show induction of RelB and Sp1 in D2SC/1.Hi by AP20187. FIG. 2E is a graph of results and a photograph of results of assays where maximum concentrations of each agent (based on titrations) were co-incubated with iCD40 D2SC/1 for 24 hrs and nuclear lysates were analyzed by western blot.\nReporter assays were carried out in these cell lines to determine whether iCD40 could also induce NFκB activation in DCs. […] Several studies have identified that the RelB subunit of NFκB plays a significant role in the DC maturation program (Pettit 1997; Martin 2003). […] Therefore, as a surrogate marker for DC activation, the nuclear translocation of RelB was analyzed by western blot in iCD40 DCs exposed to log dilutions of AP20187 (FIG. 2D).\nDC activation potency of iCD40 was compared with other traditional DC maturation stimuli, such as LPS, TNFα, anti-CD40 mAb, and CD40L. […]"}, "[3]": {"tested_on": "syngeneic lymph node (LN)-derived cells", "assay": "Mixed lymphocyte reaction, 3H-thymidine T cell proliferation with mitomycin C-treated D2SC/1 DCs", "format": "cell-based", "conditions": "purified CD8+ T cells from LN tissue (>95%), no CD4+ help", "experimental": "The initial approach to the determination of the T cell stimulation capacity of iCD40 DCs involved the co-incubation of mitomycin C-treated D2SC/1 DCs with syngeneic lymph node (LN)-derived cells in vitro. This mixed lymphocyte reaction (MLR) assay measured the ability of iCD40 DCs to induce a syngeneic T cell proliferative response to bovine serum-derived xenogeneic antigens (FIG. 3C). […] In order to investigate whether this T cell activation effect was dependent on CD4+ T cell help, CD8+ T cells from LN tissue (>95%) were purified and the ^3H-thymidine-based proliferation assay was repeated (FIG. 3C). […] Furthermore, the CD4+-depletion data inferred that the iCD40 receptor may be capable of substituting for CD4+ T cell help in DC-based vaccination strategies."}, "[4]": {"tested_on": "IL-12", "assay": "Intracellular cytokine staining of IL-12 in BMDCs", "format": "cell-based, C57BL/6 mice", "conditions": "decreased thereafter", "from_the_text": "A viral region E1 and E3-deleted, replication-deficient type 5 adenoviral vector was engineered to express both iCD40 and EGFP under the control of the CMV early/immediate promoter/enhancer. Ad-iCD40-GFP successfully transduced and expressed the iCD40 transgene, as well as the EGFP marker, in purified BMDCs (FIG. 5A,B). […] The effects of Ad-iCD40-GFP on BMDCs were studied by using intracellular cytokine staining to evaluate DC expression of the TH1-polarizing cytokine, IL-12. The results confirmed numerous previous reports that an empty adenoviral vector can contribute to background fluorescence readings by stimulating the production of low levels of this cytokine (FIG. 5D) (Korst 2002)."}, "[5]": {"tested_on": "iCD40-IICD40 DC lines", "assay": "iCD40-IICD40 double-stable D2SC/1 DC lines, western blot and H-2K^d surface expression", "format": "cell-based", "conditions": "IICD40-expressing lines vs empty vector control", "from_the_text": "FIG. 9A-FIG. 9D show iCD40 circumvents negative feedback inhibition by the Type II CD40 (IICD40) isoform. FIG. 9A is a schematic of Type I, II, and iCD40. […] The type II CD40 isoform was rt-PCR amplified from purified BMDCs, subcloned into a pEF-1α-driven myc-tagged ZeoR vector, and transfected into iCD40-expressing D2SC/1 cells. Double clonal stable lines were generated by G418/zeocin selection and limiting dilution. Resulting lines were screened for IICD40 expression by anti-myc western blot and analyzed for iCD40 expression by anti-HA western blots. FIG. 9C is a graph showing that Type II CD40 down-regulates surface expression of Type I CD40 in DC Lines. Empty vector control and IICD40-expressing D2SC/1 lines were analyzed for their surface expression of CD40 by flow cytometry. Only viable cells were gated for analysis. FIG. 9D provides two graphs showing the Type II CD40 isoform downmodulates Type I CD40 signaling, but not iCD40 signaling. iCD40-IICD40-expressing D2SC/1 cell lines were cultured in the presence of increasing concentrations of CD40L and the AP20187 drug followed by surface staining and flow analysis of H-2K^d. […]\nTo expand upon these findings, the effects of CD40L and AP20187 titrations on each of the IICD40 lines were analyzed based on the hypothesis that IICD40-mediated type I CD40 downregulation should blunt the DC response to CD40L but not to AP20187 (FIG. 9D)."}}, "data": [{"molecule": "C=C1[C@@H](C)[C@H]2[C@H](Cc3ccccc3)NC(=O)[C@]23OC(=O)/C=C/[C@H](O)CCC[C@@H](C)C/C=C/[C@H]3[C@@H]1O", "note": "[cytocholasin B]", "values": [{"measurement": "sensitivity of CD40L-induced CD40 downregulation to inhibitor", "setting": "[1]; endocytosis inhibitor", "value": "sensitive"}]}, {"molecule": "TNFα", "values": [{"measurement": "duration of RelB induction", "setting": "[2]", "value": 24, "unit": "h"}]}, {"molecule": "balifomycin A1", "values": [{"measurement": "total CD40 levels (intracellular staining)", "setting": "[1]; endosomal H^+ATPase inhibitor", "value": "enhanced total CD40 levels"}]}, {"molecule": "lipopolysaccharide [LPS]", "values": [{"measurement": "CD8+ T cell proliferation", "setting": "[3]", "value": "failed to circumvent the requirement for CD4+ T cell-derived helper signals"}, {"measurement": "time of peak IL-12p70/p40 synthesis", "setting": "[4]", "value": 8, "unit": "h"}]}, {"molecule": "CD40L: CD40 ligand (protein) MIETYNQTSPRSAATGLPISMKIFMYLLTVFLITQMIGSALFAVYLHRRLDKIEDERNLHEDFVFMKTIQRCNTGERSLSLLNCEEIKSQFEGFVKDIMLNKEETKKENSFEMQKGDQNPQIAAHVISEASSKTTSVLQWAEKGYYTMSNNLVTLENGKQLTVKRQGLYYIYAQVTFCSNREASSQAPFIASLCLKSPGRFERILLRAANTHSSAKPCGQQSIHLGGVFELQPGASVFVNVTDPSQVSHGTGFTSFGLLKL", "values": [{"measurement": "time of peak IL-12p70/p40 synthesis", "setting": "[4]", "value": 8, "unit": "h"}, {"measurement": "surface CD40 mean fluorescence intensity", "setting": "[1]; D2SC/1 DC line, rapid kinetics", "value": "promptly reduced the mean fluorescence intensity of CD40"}, {"measurement": "MHC class I H-2K^d surface expression dose-response", "setting": "[5]", "value": "elevated amounts of CD40L were required to initiate signaling through the CD40 axis"}]}]}
